# Results reported in patent publication US20250188092A1, “RIFAMYCIN ANALOGS” (THE REGENTS OF THE UNIVERSITY OF MICHIGAN, priority 2021, published 2025).
# What was measured:
# [1] = test system: non-replicating cultures of M. tuberculosis H37Rv transformed with lux ABCDE; experiment: microbe, parasite or virus in culture; format: cell-based, Mycobacterium tuberculosis; settings: for MIC90 LORA/MABA: ratio of LORA MIC90 to MABA MIC90
# [2] = test system: M. tuberculosis transformed with luxABCDE; experiment: microbe, parasite or virus in culture; format: cell-based, Mycobacterium tuberculosis; settings: for MBC: Mycobacterium tuberculosis, 168 h, ≥99% reduction in luminescence, read-out: MBC99 Day 7 (Lux Assay) MBC
# [3] = Mycobacterium tuberculosis, H37RV, […], ≥90% reduction in luminescence, read-out: MIC90 LORA
smiles,measurement,setting,value
"CO[C@H]1/C=C/O[C@@]2(C)Oc3c(C)c(O)c4c(=O)c(c5oc6cc(N7CCOC(CN(C)C)C7)cc(OCc7ccc(CN8CCOCC8)cc7)c6nc-5c4c3C2=O)NC(=O)/C(C)=C\C=C\[C@H](C)[C@H](O)[C@@H](C)[C@@H](O)[C@@H](C)[C@H](OC(C)=O)[C@@H]1C (stereo partly drawn) [Compound 17o, (7S,9E,11S,12R,13S,14R,15R,16R,17S,18S,19E,21Z)-30-{2-[(dimethylamino)methyl]morpholin-4-yl}-2,15,17-trihydroxy-11-methoxy-3,7,12,14,16,18,22-heptamethyl-32-{[4-(morpholin-4-ylmethyl)phenyl]methoxy}-6,23,37-trioxo-8,27,38-trioxa-24,34-diazahexacyclo[23.11.1.1^4,7.0^5,36.0^26,35.0^28,33]octatriaconta-1,3,5(36)9,19,21,25,28,30,32,34-undecaen-13-yl acetate]",MIC90 LORA Rel to RMP,[1],2.1
same,MIC90,[1]; [3],0.106 µM
same,MIC90 LORA/MABA,[1],19
same,MBC99 Day 7 (Lux Assay) MBC Rel to RMP,[2],0.28
same,MBC,[2],0.128 µM
CO[C@H]1/C=C/O[C@@]2(C)Oc3c(C)c(O)c4c(=O)c(c5oc6cc(N7CCN(CC(=O)O)CC7)cc(OCc7ccc(CN8CCOCC8)cc7)c6nc-5c4c3C2=O)NC(=O)/C(C)=C\C=C\[C@H](C)[C@H](O)[C@@H](C)[C@@H](O)[C@@H](C)[C@H](OC(C)=O)[C@@H]1C [Compound 17i],MIC90 LORA Rel to RMP,[1],9.2
same,MIC,[1]; [3],0.247 µM
same,MIC90 LORA/MABA,[1],9.5
same,MBC,[2],> 0.1 µM
"CCOC(=O)N1CCN(c2cc(C)c3nc4c5c6c7c(C)c(O)c5c(=O)c(c-4oc3c2)NC(=O)/C(C)=C\C=C\[C@H](C)[C@H](O)[C@@H](C)[C@@H](O)[C@@H](C)[C@H](OC(C)=O)[C@H](C)[C@@H](OC)/C=C/O[C@@](C)(O7)C6=O)CC1 [Compound 26h, Ethyl 4-[(7S,9E,11S,12R,13S,14R,15R,16R,17S,18S,19E,21Z)-13-(acetyloxy)-2,15,17-trihydroxy-11-methoxy-3,7,12,14,16,18,22,32-octamethyl-6,23,37-trioxo-8,27,38-trioxa-24,34-diazahexacyclo[23.11.1.1^4,7.0^5,36.0^26,35.0^28,33]octatriaconta-1(36)2,4,9,19,21,25,28,30,32,34-undecaen-30-yl]piperazine-1-carboxylate]",MIC90 LORA Rel to RMP,[1],0.05
same,MIC90,[1]; [3],0.0094 µM
same,MIC90 LORA/MABA,[1],1.9
same,MBC99 Day 7 (Lux Assay) MBC Rel to RMP,[2],0.06
same,MBC,[2],0.028 µM
"CO[C@H]1/C=C/O[C@@]2(C)Oc3c(C)c(O)c4c(=O)c(c5oc6cc(N7CCN(C(=O)OC(C)(C)C)CC7)cc(C)c6nc-5c4c3C2=O)NC(=O)/C(C)=C\C=C\[C@H](C)[C@H](O)[C@@H](C)[C@@H](O)[C@@H](C)[C@H](OC(C)=O)[C@@H]1C [Compound 26i, tert-Butyl 4-[(7S,9E,11S,12R,13S,14R,15R,16R,17S,18S,19E,21Z)-13-(acetyloxy)-2,15,17-trihydroxy-11-methoxy-3,7,12,14,16,18,22,32-octamethyl-6,23,37-trioxo-8,27,38-trioxa-24,34-diazahexacyclo[23.11.1.1^4,7.0^5,36.0^26,35.0^28,33]octatriaconta-1(36)2,4,9,19,21,25,28,30,32,34-undecaen-30-yl]piperazine-1-carboxylate]",MIC90 LORA Rel to RMP,[1],0.05
same,MIC90,[1]; [3],0.0093 µM
same,MIC90 LORA/MABA,[1],2.0
same,MBC99 Day 7 (Lux Assay) MBC Rel to RMP,[2],0.10
same,MBC,[2],0.047 µM
